# Assay results from US12291513B2, “Pyridinium derivatives made by hydrothermal synthesis for use as anolytes in electrochemical cells” (Wisconsin Alumni Research Foundation, priority 2021, dated 2025).
# How the values were obtained:
# [1] = Viscosity (rheometer); type: physicochemical; settings: for viscosity: pure water
# Protocol: Viscosity measurements were carried out using an Ares G2 rheometer (TA Instruments) with an advanced Peltier system at 25° C.
# [2] = Symmetric, volumetrically-unbalanced flow cell cycling; settings: sixteen days (150 cycles) continuous charge-discharge, N2 glovebox, first redox process
# Protocol: The RFB measurements were carried out in a custom-made zero-gap device previously reported by Li et al. (Li, W. et al., Chem 2018, 4 (11), 2644-2657; and Li, W. et al., Adv. Energy Mater. 2019, 9 (31), 1900918.) Both symmetric flow cell and RFB full cell measurements were conducted using a Bio-Logic SP-200 potentiostat at room temperature (˜20° C.). In symmetric cells, 0.1 M of active species in 1 M NaCl (pre-charged to 50% SOC of the first electron reduction using FcNCl as the counter cathode in bulk electrolysis) was utilized on both sides with the capacity limiting side (CLS) consisting of 5 mL of solution and the non-capacity limiting side (NCLS) consisting of 10 mL of solution separated by a Selemion AMV anion-exchange membrane (Asahi Glass Co.). The neat Dex-Vi full RFB cell cycling was performed using the product from the Dex-Vi synthesis directly without any purification. The neat product was diluted to roughly 0.1 M to pair with a 0.2 M BTMAP-Fc counter catholyte in excess capacity separated by an AMV membrane. Both the anolyte and catholyte were 5 mL in total volume with 0.5 M NaCl supporting electrolyte. […]
smiles,measurement,setting,value
"C[N+](C)(C)CC(O)C[n+]1ccc(-c2cc[n+](CC(O)C[N+](C)(C)C)cc2)cc1 (stereo not drawn) [Dex-Vi, bis(3-trimethylammonio-2-hydroxy)propyl viologen tetrachloride]","Viscosity at 1M, 25° C.","[1]; 1M, 25° C.",14.2 cP
same,viscosity,[1]; 0.25 M,1.1 cP
same,viscosity,[1]; 0.50 M,1.8 cP
same,viscosity,[1]; 1.0 M,4.7 cP
same,viscosity,[1]; 1.5 M,50 cP
same,decay in symmetric flow cell,[2],no decay
